Read-outs that look alike come from different tables or passages of the source.
Assays:
human alpha 7-wt nAChR [1] = target: T1, human alpha 7-wt nAChR (Homo sapiens, UniProt P36544); experiment: Ca2+ flux imaging (FDSS) (protocol B); type: cell-based; settings: for Emax: read-out: % Efficacy
T1 construct: expressed in transfected cells
Summary of the method: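 Fluo-4AM-loaded (2 µM) cells expressing human α7-wt nAChR in HEPES-HBSS with 5 mM CaCl2. Compounds (0.01–30 µM) were added, possibly 10 min before, with choline 100 µM, and peak fluorescence was monitored by FDSS. Potentiation was relative to the choline response, set as 100%; EC50 came from sigmoidal curves.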

human alpha 7-wt nAChR [2] = target: T1, human alpha 7-wt nAChR; experiment: Patch-clamp current recording (whole-cell voltage-clamp, GH4C1 cells); type: cell-based; design: key: Type 0 compounds minimally change the effect size of the current elicited by 1 mM choline.; Type 1 compounds enhance the effect size of the current elicited by 1 mM choline but minimally alter the kinetics of the receptor.; Type 2 compounds enhance the effect size of the current elicited by 1 mM choline while reducing the rate and/or the extent of desensitization.; Type 3 compounds enhance the effect size of the current elicited by 1 mM choline. When tested at higher concentrations up to 10 µM they completely inhibit desensitization; Type 4 compounds allow for an initial desensitization of the receptor followed by a re-opening of the receptor during agonist application; settings: current elicited by 1 mM choline
Method: The compounds of the present invention are classified as type 1-4, based on qualitative kinetic properties, as determined by whole-cell voltage-clamp recordings. This classification is based on the effect of an alpha 7 PAM compound, as described hereinbefore, on the signal elicited by an agonist application. In particular, said agonist is choline at a concentration of 1mM. In a preferred experimental setting, said alpha 7 PAM compound and choline are simultaneously applied to the cell, as described hereinafter. Desensitization is defined as the closure of the receptor upon activation during the application of the agonist in whole-cell voltage-clamp electrophysiology measurements seen as the reduction of the […] current after initial activation by the agonist.
The definition of the PAM types 1-4 is described hereinafter: Type 0 compounds minimally change the effect size of the current elicited by 1 mM choline. Type 1 compounds enhance the effect size of the current elicited by 1 mM choline but minimally alter the kinetics of the receptor. In particular, the rate and the extent of desensitization and of deactivation of the receptor elicited by the agonist is not affected. The compound-modulated response to 1 mM choline, therefore, is close to a linear scaling of the 1 mM choline response in absence of the alpha 7 PAM compound: Type 2 compounds enhance the effect size of the current elicited by 1 mM choline while reducing the rate and/or the extent of desensitization. Deactivation of the receptor is generally unaffected. Type 3 compounds enhance the effect size of the current elicited by 1 mM choline. […] Deactivation of the receptor may be slowed down. Type 4 compounds allow for an initial desensitization of the receptor followed by a re-opening of the receptor during agonist application. At low-potency concentrations of the alpha 7 PAM compound, the agonist-induced activation, which is followed by desensitization, can still be separated from the compound-induced re-opening as an initial inward current-maximum. At higher potency concentrations of the alpha 7 PAM compound, the re-opening occurs faster than the closure due to desensitization so that the initial current-maximum disappears.
A compound was considered to have interesting PAM-like activity when the potentiation of the peak current was at least 200% compared to the control choline response (= 100%). Such compounds are classified as belonging to a particular PAM type in the Experimental Part. Compounds not meeting the condition are not classified as belonging to a particular PAM-type.
The compounds also have a potentiating effect on the response to choline when measured by whole-cell patch clamp electrophysiology in GH4C1 cells stably over-expressing the human wild-type alpha 7 receptor.
Example D.2 : Patch-clamp current recording
Patch-clamp recording from mammalian cells has provided a powerful means of assessing the function of membrane-bound proteins thought to be subunits of ligand-gated ion channels. Activation of such proteins by endogenous or exogenous ligands cause opening of a pore associated with the receptor through which ions flow down their electrochemical gradient. In the case of the human alpha 7-wt nAChR-expressing GH4C1 recombinant cell line the preferential permeability to calcium of this receptor means that calcium flows into the cell upon activation by ACh, choline and other nicotinic ligands giving rise to a calcium current. Since this receptor rapidly desensitizes in the presence of agonist it is important that an application system is used which is capable of very rapid switching of solutions (< 100 ms) to prevent partial or full desensitisation of receptor responses coincident with the time of agonist application. Consequently, a second convenient technique to assess the enhancement of nicotinic efficacy is a patch-clamp recording from human alpha 7-wt nAChR-expressing GH4C1 cells coupled with a rapid-application system. […]

[3] = Ca2+ assay as described in D.1, read-out: pEC50 (converted)

T1 sequence (P36544 23-502): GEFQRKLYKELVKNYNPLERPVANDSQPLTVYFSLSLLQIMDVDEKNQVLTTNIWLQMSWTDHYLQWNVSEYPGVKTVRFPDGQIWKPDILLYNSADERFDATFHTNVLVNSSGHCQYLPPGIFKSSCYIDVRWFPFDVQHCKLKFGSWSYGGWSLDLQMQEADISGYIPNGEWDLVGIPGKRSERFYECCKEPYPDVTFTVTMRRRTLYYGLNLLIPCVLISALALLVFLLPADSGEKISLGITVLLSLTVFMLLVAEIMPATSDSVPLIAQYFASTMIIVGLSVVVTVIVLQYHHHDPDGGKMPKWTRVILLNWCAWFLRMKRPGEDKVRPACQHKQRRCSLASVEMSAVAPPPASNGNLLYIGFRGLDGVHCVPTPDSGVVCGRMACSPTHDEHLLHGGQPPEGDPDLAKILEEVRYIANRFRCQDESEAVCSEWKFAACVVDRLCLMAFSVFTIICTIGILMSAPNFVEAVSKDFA

Emax (human alpha 7-wt nAChR [1]; Ca2+ assay as described in D.1) | Compound | EC50 (human alpha 7-wt nAChR [1]; [3]) | Emax (human alpha 7-wt nAChR [1]) | PAM type (human alpha 7-wt nAChR [2]) | EC50 (human alpha 7-wt nAChR [1])
– | Cc1cc(-c2c(F)cc(N3CCOC(C)C3)cc2CNC(=O)CC2CCC2)cc(C)n1 (stereo not shown) [Compound 118] | 23.4 nM | 485% | 3 | –
– | Cc1cc(-c2ccc(N3C[C@@H](C)O[C@@H](C)C3)cc2CNC(=O)c2cc(C)on2)cc(C)n1 [Compound 3] | – | – | 1 | 457 nM
– | Cc1cc(-c2c(F)cc(N3CCO[C@H](C(F)(F)F)C3)cc2CNC(=O)c2cc(C)on2)cc(C)n1 [Compound 111] | 331 nM | 550% | 1 | –
– | Cc1cc(-c2c(F)cc(N3CCOC(C)C3)cc2CNC(=O)C(C)C)cc(C)n1 (stereo not shown) [Compound 113] | 89.1 nM | 284% | 2 | –
– | Cc1cc(-c2c(F)cc(N3C[C@@H](C)O[C@@H](C)C3)cc2CNC(=O)C2CC2)ccn1 [Compound 88] | 209 nM | 868% | 2 | –
– | Cc1cc(-c2cc(F)c(N3C[C@@H](C)O[C@@H](C)C3)cc2CNC(=O)CC2CC2)cc(C)n1 [Compound 125] | 263 nM | 451% | 2 | –
– | Cc1cc(-c2c(F)cc(N3CCO[C@@H](C(F)(F)F)C3)cc2CNC(=O)CC2CC2)cc(C)n1 [Compound 104] | 9.12 nM | – | 3 | –
– | Cc1cc(-c2c(F)cc(N3CCOC(C)C3)cc2CNC(=O)c2cc(C)on2)cc(C)n1 (stereo not shown) [Compound 112] | 1070 nM | 443% | 2 | –
– | Cc1cc(-c2ccc(N3C[C@@H](C)O[C@@H](C)C3)cc2CNC(=O)c2conc2C)cc(C)n1 [Compound 4] | 45.7 nM | – | 2 | –
– | Cc1cc(-c2ccc(N3C[C@@H](C)O[C@@H](C)C3)c(CNC(=O)C(C)C)c2)cc(C)n1 [Compound 134] | 91.2 nM | – | 3 | –
– | Cc1cc(-c2c(Cl)cc(N3C[C@@H](C)O[C@@H](C)C3)cc2CNC(=O)c2cc(C)on2)cc(C)n1 [Compound 120] | 661 nM | – | 1 | –
– | Cc1cc(-c2c(F)cc(N3CCOC(C)C3)cc2CNC(=O)C2CC2)cc(C)n1 (stereo not shown) [Compound 115] | 525 nM | 232% | 2 | –
– | Cc1cc(-c2c(F)cc(N3C[C@@H](C)O[C@@H](C)C3)c(F)c2CNC(=O)c2cc(C)on2)cc(C)n1 [Compound 123] | 631 nM | – | 0 | –
– | Cc1cc(-c2c(F)cc(N3CCO[C@@H](C(F)(F)F)C3)cc2CNC(=O)c2conc2C)cc(C)n1 [Compound 103] | 16.6 nM | 796% | 3 | –
– | Cc1cc(-c2c(F)cc(N3CCO[C@H](C(F)(F)F)C3)cc2CNC(=O)C2CC2)cc(C)n1 [Compound 109] | 81.3 nM | 258% | 3 | –
817% | Cc1cc(-c2ccc(N3C[C@@H](C)O[C@@H](C)C3)cc2CNC(=O)C(C)C)cc(C)n1 [Compound 2, N-[[5-[(2R,6S)-2,6-dimethyl-4-morpholinyl]-2-(2,6-dimethyl-4-pyridinyl)phenyl]methyl]-2-methyl-propanamide] | 37.2 nM | – | 2 | –
– | Cc1cc(-c2c(F)cc(N3C[C@@H](C)O[C@@H](C)C3)cc2CNC(=O)C2CCOCC2)cc(C)n1 [Compound 86] | 148 nM | – | 3 | –
– | Cc1cc(-c2ccc(N3CC4CCC(C3)O4)cc2CNC(=O)C2CC2)cc(C)n1 [Compound 131] | 631 nM | 269% | 2 | –
– | Cc1cc(-c2c(F)cc(N3C[C@@H](C)O[C@@H](C)C3)cc2CNC(=O)C(C)C)ccn1 [Compound 89] | 72.4 nM | – | 2 | –

Reference: patent EP2678315B1, “(Pyridin-4-yl)benzylamides as allosteric modulators of alpha 7 nAChR” (Janssen Pharmaceutica, N.V., priority 2011, dated 2012)
